From patent US9216968B2, “Heterocyclic derivative and pharmaceutical drug” (NIPPON SHINYAKU CO., LTD., priority 2011, dated 2015)
Where a name gives a salt, the structure may show the parent alone.

Target: human mPGES-1 (Homo sapiens (Human), UniProt O14684)
Assay: mPGES-1 inhibiting activity (microsome fractions, PGE2 by HTRF)
Assay type: biochemical
Conditions: microsomes from CHO-K1 cells transfected with human mPGES-1; PGH2 1 μM, 4° C., 60 seconds; read-out: mPGES-1 Inhibition IC50
Protocol: mPGES-1 microsome fractions were prepared from CHO-K1 cells transiently transfected with plasmid encoding the human mPGES-1cDNA. Microsomes were diluted with potassium phosphate buffer containing reduced glutathione (pH7.4), and DMSO containing test compound or DMSO alone was added (such that DMSO final concentration would be 1% in each) and incubated at 4° C. for 20 minutes. Then, the enzymatic reactions were initiated by the addition of PGH2 substrate (final concentration 1 μM) and incubated at 4° C. for 60 seconds. The reaction was terminated by the addition of a citrate solution (final citrate concentration 50 mM) containing ferric chloride (final concentration 1 mg/mL). PGE2 production in the enzyme reaction aliquot was measured using HTRF kit (Cisbio International, catalogue #62P2APEC). The solution free of test compound was used as positive control, and the solution free of test compound and microsome sample was used as negative control. 100% activity was defined as PGE2 production in the positive control minus PGE2 production in negative control. IC50 value was calculated by standard method.

Chain of human mPGES-1 (O14684 whole entry): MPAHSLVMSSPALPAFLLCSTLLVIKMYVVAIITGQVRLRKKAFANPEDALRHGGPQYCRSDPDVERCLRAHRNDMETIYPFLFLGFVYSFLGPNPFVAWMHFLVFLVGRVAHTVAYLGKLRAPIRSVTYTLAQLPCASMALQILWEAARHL

| Compound | IC50 [nM] |
| --- | --- |
| Cn1cnc2c(C(=O)NC3CCCCC3)cc(NC(=O)c3ccccc3C(F)(F)F)cc21 [Example 47, N-Cyclohexyl-1-methyl-6-({[2-(trifluoromethyl)phenyl]carbonyl}amino)-1H-benzimidazole-4-carboxamide] | 270 |
| Cc1c(Cl)cccc1NC(=O)c1cc(NC(=O)c2ccccc2C(F)(F)F)cc2[nH]c(NCC3(C)COC3)nc12 [Example 159, N-(3-Chloro-2-methylphenyl)-2-{[(3-methyloxetan-3-yl)methyl]amino}-6-({[2-(trifluoromethyl)phenyl]carbonyl}amino)-1H-benzimidazole-4-carboxamide hydrochloride] | 403 |
| COCc1nc2c(C(=O)Nc3cccc(Cl)c3C)cc(NC(=O)c3cc(CCC(C)(C)O)ccc3Cl)cc2[nH]1 [Example 119, 6-({[2-Chloro-5-(3-hydroxy-3-methylbutyl)phenyl]carbonyl}amino)-N-(3-chloro-2-methylphenyl)-2-(methoxymethyl)-1H-benzimidazole-4-carboxamide hydrochloride] | 208 |
| COCc1nc2c(C(=O)Nc3cccc(Cl)c3C)cc(NC(=O)c3cc(OCCCC(F)(F)F)ccc3Cl)cc2[nH]1 [Example 249, N-(3-Chloro-2-methylphenyl)-6-({[2-chloro-5-(4,4,4-trifluorobutoxy)phenyl]carbonyl}amino)-2-(methoxymethyl)-1H-benzimidazole-4-carboxamide hydrochloride] | 404 |
| COCc1nc2c(C(=O)NCc3cccs3)cc(NC(=O)c3ccccc3C(F)(F)F)cc2[nH]1 [Example 223, 2-(Methoxymethyl)-N-(thiophen-2-ylmethyl)-6-({[2-(trifluoromethyl)phenyl]carbonyl}amino)-1H-benzimidazole-4-carboxamide hydrochloride] | 68.2 |
| O=C(Nc1cc(C(=O)NC2CCCCC2)c2[nH]ncc2c1)c1ccccc1C(F)(F)F [Example 9, N-Cyclohexyl-5-({[2-(trifluoromethyl)phenyl]carbonyl}amino)-1H-indazole-7-carboxamide] | 452 |
| COCc1nc2c(C(=O)Nc3cccc(Cl)c3C)cc(NC(=O)c3ccc(C(F)(F)F)cc3C(F)(F)F)cc2[nH]1 [Example 111, 6-({[2,4-Bis(trifluoromethyl)phenyl]carbonyl}amino)-N-(3-chloro-2-methylphenyl)-2-(methoxymethyl)-1H-benzimidazole-4-carboxamide hydrochloride] | 765 |
| COCc1nc2c(C(=O)Nc3cccc4nsnc34)cc(NC(=O)c3ccccc3C(F)(F)F)cc2[nH]1 [Example 221, N-(2,1,3-Benzothiadiazol-4-yl)-2-(methoxymethyl)-6-({[2-(trifluoromethyl)phenyl]carbonyl}amino)-1H-benzimidazole-4-carboxamide hydrochloride] | 2.2 |
| COCc1nc2c(C(=O)Nc3cccc(Cl)c3C)cc(NC(=O)c3cc(C#CCOC(C)(C)C)ccc3Cl)cc2[nH]1 [Example 117, 6-({[5-(3-tert-Butoxy-1-propynyl)-2-chlorophenyl]carbonyl}amino)-N-(3-chloro-2-methylphenyl)-2-(methoxymethyl)-1H-benz imidazole-4-carboxamide hydrochloride] | 584 |
| COCc1nc2c(C(=O)Nc3cccc(Cl)c3C)cc(NC(=O)c3cc(OCC(F)F)ccc3Cl)cc2[nH]1 [Example 248, 6-({[2-Chloro-5-(2,2-difluoroethoxy)phenyl]carbonyl}amino)-N-(3-chloro-2-methylphenyl)-2-(methoxymethyl)-1H-benzimidazole-4-carboxamide hydrochloride] | 201 |
| COCc1nc2c(C(=O)NCc3ccccc3Cl)cc(NC(=O)c3ccccc3C(F)(F)F)cc2n1C [Example 91, N-(2-Chlorobenzyl)-2-(methoxymethyl)-1-methyl-6-({[2-(trifluoromethyl)phenyl]carbonyl}amino)-1H-benzimidazole-4-carboxamide] | 327 |
| O=C(Nc1cc(C(=O)NCC2(O)CCCCC2)c2nc[nH]c2c1)c1ccccc1C(F)(F)F [Example 5, N-[(1-Hydroxycyclohexyl)methyl]-6-({[2-(trifluoromethyl)phenyl]carbonyl}amino)-1H-benzimidazole-4-carboxamide] | 453 |
| COCc1nc2c(C(=O)Nc3ccc4c(c3)S(=O)(=O)C=C4)cc(NC(=O)c3ccccc3C(F)(F)F)cc2[nH]1 [Example 222, N-(1,1-Dioxide-1-benzothiophen-6-yl)-2-(methoxymethyl)-6-({[2-(trifluoromethyl)phenyl]carbonyl}amino)-1H-benzimidazole-4-carboxamide hydrochloride] | 661 |
| COCc1nc2c(C(=O)Nc3ccc4[nH]ccc4c3)cc(NC(=O)c3ccccc3C(F)(F)F)cc2[nH]1 [Example 224, N-(1H-Indol-5-yl)-2-(methoxymethyl)-6-({[2-(trifluoromethyl)phenyl]carbonyl}amino)-1H-benzimidazole-4-carboxamide] | 26.5 |
| O=C(Nc1cc(C(=O)NCc2ccccc2C(F)(F)F)c2[nH]ncc2c1)c1ccccc1C(F)(F)F [Example 10, N-[2-(Trifluoromethyl)benzyl]-5-({[2-(trifluoromethyl)phenyl]carbonyl}amino)-1H-indazole-7-carboxamide] | 333 |
| COCc1nc2c(C(=O)Nc3nc4cc(Cl)ccc4o3)cc(NC(=O)c3ccccc3C(F)(F)F)cc2[nH]1 [Example 228, N-(5-Chloro-1,3-benzoxazol-2-yl)-2-(methoxymethyl)-6-({[2-(trifluoromethyl)phenyl]carbonyl}amino)-1H-benzimidazole-4-carboxamide hydrochloride] | 1.7 |
| COCc1nc2c(C(=O)Nc3ccsc3)cc(NC(=O)c3ccccc3C(F)(F)F)cc2[nH]1 [Example 220, 2-(Methoxymethyl)-N-(thiophen-3-yl)-6-({[2-(trifluoromethyl)phenyl]carbonyl}amino)-1H-benzimidazole-4-carboxamide hydrochloride] | 8.6 |
| O=C(Nc1cc2c(c(C(=O)NCc3ccccc3C(F)(F)F)c1)OCC2)c1ccccc1C(F)(F)F [Example 6, N-[2-(Trifluoromethyl)benzyl]-5-({[2-(trifluoromethyl)phenyl]carbonyl}amino)-2,3-dihydro-1-benzofuran-7-carboxamide] | 27.4 |
| COCc1nc2c(C(=O)Nc3cccnc3)cc(NC(=O)c3ccccc3C(F)(F)F)cc2[nH]1 [Example 216, 2-(Methoxymethyl)-N-(pyridin-3-yl)-6-({[2-(trifluoromethyl)phenyl]carbonyl}amino)-1H-benzimidazole-4-carboxamide hydrochloride] | 204 |
| COCc1nc2c(C(=O)NCC(C)(C)C)cc(NC(=O)c3ccccc3C(F)(F)F)cc2[nH]1 [Example 226, N-(2,2-Dimethylpropyl)-2-(methoxymethyl)-6-({[2-(trifluoromethyl)phenyl]carbonyl}amino)-1H-benzimidazole-4-carboxamide hydrochloride] | 26.9 |
| COCc1nc2c(C(=O)Nc3cccs3)cc(NC(=O)c3ccccc3C(F)(F)F)cc2[nH]1 [Example 227, 2-(Methoxymethyl)-N-(thiophen-2-yl)-6-({[2-(trifluoromethyl)phenyl]carbonyl}amino)-1H-benzimidazole-4-carboxamide hydrochloride] | 0.1 |
